In publication PMC12586182 (Frontiers in Oncology, 2025):

What was measured:
Assay in all cases: Kinase panel profiling at 1 µmol/L (mobility shift assay, Carna)
Assay type in all cases: biochemical
Conditions in all cases: 1 µmol/L of BTK inhibitor
[1] = target: T1, MSK1 (Homo sapiens, UniProt O75582)
T1 construct: purchased Carna Biosciences

[2] = target: T2, SGK (Homo sapiens, UniProt O00141)
T2 construct: purchased Carna Biosciences
T2 sequence (O00141 1-431): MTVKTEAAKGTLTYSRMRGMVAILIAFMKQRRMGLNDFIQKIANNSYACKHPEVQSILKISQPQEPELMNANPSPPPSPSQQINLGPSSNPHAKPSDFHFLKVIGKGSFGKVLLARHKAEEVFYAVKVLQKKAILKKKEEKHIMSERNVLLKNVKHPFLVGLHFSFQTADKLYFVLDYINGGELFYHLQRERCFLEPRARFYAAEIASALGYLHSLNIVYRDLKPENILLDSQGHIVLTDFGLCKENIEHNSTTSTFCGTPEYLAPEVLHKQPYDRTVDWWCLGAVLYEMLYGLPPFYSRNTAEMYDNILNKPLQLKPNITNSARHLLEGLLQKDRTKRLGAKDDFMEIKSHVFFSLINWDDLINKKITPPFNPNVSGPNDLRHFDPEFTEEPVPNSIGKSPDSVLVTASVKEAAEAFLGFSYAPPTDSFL

[3] = target: T3, FMS (Homo sapiens, UniProt P07333)
T3 construct: purchased Carna Biosciences
T3 sequence (P07333 20-972): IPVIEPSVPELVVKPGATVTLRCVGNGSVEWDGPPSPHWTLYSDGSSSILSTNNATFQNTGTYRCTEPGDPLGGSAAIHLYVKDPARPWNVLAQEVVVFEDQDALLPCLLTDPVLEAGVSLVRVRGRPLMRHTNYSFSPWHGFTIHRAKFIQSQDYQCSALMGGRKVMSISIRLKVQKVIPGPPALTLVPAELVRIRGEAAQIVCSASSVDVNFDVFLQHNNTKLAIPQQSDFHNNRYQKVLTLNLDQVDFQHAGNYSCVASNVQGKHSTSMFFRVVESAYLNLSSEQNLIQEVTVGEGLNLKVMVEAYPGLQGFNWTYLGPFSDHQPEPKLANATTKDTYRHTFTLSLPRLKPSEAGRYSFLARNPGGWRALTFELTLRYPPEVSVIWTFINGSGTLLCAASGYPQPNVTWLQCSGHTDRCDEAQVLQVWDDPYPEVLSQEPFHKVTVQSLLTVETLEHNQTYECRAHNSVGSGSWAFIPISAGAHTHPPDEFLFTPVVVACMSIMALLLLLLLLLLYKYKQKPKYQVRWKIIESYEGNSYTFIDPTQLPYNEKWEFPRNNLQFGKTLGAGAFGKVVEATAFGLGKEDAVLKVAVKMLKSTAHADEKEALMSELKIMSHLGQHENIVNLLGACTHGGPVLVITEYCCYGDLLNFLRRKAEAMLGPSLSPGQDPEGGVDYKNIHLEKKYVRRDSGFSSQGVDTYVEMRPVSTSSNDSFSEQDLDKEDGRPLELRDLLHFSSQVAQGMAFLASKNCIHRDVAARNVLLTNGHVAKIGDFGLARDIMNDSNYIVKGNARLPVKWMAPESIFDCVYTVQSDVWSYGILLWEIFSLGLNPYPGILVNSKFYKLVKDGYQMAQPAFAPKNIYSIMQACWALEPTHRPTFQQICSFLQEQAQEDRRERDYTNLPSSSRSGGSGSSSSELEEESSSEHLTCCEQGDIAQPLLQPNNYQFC

[4] = target: T4, FLT4 (Homo sapiens, UniProt P35916)
T4 construct: purchased Carna Biosciences
T4 sequence (P35916 25-1363): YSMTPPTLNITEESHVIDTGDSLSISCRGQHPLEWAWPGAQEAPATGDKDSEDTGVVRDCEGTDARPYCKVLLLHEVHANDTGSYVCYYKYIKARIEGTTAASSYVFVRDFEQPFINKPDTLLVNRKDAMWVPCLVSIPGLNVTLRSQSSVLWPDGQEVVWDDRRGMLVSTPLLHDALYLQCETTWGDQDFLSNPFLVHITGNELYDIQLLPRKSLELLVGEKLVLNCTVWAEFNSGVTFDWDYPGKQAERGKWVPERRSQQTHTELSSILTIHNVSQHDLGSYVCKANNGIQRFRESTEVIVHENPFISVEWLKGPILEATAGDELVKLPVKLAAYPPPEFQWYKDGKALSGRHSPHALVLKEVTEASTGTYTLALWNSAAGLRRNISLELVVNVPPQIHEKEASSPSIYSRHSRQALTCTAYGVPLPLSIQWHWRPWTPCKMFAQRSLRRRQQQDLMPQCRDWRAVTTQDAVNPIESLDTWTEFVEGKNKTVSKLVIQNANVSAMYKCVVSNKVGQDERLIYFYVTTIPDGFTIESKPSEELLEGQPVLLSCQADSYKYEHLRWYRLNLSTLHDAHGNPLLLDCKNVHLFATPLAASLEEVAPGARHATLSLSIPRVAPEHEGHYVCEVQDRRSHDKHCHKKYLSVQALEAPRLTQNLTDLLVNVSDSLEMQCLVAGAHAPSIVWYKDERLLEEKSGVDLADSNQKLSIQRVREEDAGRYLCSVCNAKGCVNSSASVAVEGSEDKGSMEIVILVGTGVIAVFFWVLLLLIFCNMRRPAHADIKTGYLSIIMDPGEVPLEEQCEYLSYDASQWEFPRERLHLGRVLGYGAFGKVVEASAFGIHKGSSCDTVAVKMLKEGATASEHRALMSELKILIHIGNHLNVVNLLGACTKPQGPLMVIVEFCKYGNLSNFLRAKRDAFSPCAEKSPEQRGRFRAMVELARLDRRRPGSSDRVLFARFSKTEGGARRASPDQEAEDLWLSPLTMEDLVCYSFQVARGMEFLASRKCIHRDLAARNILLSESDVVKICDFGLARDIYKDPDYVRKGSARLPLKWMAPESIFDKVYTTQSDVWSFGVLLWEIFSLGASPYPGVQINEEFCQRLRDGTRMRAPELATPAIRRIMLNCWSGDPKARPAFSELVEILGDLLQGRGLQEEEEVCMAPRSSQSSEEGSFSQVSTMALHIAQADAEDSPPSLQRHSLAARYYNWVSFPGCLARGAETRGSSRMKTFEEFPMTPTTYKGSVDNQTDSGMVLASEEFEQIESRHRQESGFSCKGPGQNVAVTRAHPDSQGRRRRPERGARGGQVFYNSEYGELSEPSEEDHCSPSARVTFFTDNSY

[5] = target: T5, PGK (Homo sapiens, UniProt Q13976)
T5 construct: purchased Carna Biosciences
T5 sequence (Q13976 1-671): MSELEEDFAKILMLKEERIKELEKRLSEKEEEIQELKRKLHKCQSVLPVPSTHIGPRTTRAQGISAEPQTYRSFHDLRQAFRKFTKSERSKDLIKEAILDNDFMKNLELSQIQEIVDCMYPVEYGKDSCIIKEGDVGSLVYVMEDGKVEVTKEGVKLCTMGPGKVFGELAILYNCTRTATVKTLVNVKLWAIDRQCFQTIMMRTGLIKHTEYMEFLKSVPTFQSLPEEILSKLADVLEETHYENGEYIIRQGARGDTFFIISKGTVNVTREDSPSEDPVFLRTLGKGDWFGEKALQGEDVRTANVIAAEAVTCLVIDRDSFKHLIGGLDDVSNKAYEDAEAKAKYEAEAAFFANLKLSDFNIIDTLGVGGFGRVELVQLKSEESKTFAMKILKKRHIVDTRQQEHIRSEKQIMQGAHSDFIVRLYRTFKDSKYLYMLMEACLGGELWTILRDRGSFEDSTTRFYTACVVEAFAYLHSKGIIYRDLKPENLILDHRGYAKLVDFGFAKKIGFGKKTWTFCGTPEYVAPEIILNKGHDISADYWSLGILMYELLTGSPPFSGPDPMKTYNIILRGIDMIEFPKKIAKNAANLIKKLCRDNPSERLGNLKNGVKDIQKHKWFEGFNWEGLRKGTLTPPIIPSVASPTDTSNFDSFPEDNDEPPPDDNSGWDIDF

[6] = target: T6, CK1α (Homo sapiens, UniProt P48729)
T6 construct: purchased Carna Biosciences
T6 sequence (P48729 whole entry): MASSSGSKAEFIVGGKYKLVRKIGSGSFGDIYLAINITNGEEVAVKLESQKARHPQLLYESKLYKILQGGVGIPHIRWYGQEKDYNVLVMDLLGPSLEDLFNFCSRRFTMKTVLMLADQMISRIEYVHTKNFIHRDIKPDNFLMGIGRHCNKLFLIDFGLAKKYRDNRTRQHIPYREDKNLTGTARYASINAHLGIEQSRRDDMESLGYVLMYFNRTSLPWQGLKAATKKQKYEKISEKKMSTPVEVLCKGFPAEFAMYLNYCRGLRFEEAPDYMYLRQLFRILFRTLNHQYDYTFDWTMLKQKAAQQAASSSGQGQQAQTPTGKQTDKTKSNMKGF

[7] = target: T7, CLK2 (Homo sapiens, UniProt P49760)
T7 construct: purchased Carna Biosciences
T7 sequence (P49760 whole entry): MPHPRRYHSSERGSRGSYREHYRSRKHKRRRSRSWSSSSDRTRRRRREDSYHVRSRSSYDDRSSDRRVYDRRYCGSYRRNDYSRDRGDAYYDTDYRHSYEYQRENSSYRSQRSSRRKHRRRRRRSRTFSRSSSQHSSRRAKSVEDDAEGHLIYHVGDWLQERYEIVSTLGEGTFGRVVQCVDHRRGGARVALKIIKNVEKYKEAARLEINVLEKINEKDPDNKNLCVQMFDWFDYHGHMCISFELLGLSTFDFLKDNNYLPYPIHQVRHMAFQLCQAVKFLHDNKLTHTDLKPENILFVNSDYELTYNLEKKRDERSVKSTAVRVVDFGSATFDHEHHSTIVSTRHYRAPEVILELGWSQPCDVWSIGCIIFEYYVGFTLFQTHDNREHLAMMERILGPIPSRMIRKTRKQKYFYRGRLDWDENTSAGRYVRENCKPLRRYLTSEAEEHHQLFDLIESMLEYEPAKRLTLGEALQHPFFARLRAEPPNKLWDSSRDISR

[8] = target: T8, CK2α2/β (Homo sapiens, UniProt P19784)
T8 construct: purchased Carna Biosciences
T8 sequence (P19784 whole entry): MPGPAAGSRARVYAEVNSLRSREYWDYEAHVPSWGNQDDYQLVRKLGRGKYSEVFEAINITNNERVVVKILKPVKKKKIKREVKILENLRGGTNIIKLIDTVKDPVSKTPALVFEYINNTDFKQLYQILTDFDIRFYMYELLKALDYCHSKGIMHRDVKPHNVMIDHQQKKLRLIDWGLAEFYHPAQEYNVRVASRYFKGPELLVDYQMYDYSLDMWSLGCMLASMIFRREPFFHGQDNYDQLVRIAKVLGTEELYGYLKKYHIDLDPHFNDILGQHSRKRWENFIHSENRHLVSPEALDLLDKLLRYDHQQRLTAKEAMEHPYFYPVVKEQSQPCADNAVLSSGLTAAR
T8 sequence (P67870 whole entry partner): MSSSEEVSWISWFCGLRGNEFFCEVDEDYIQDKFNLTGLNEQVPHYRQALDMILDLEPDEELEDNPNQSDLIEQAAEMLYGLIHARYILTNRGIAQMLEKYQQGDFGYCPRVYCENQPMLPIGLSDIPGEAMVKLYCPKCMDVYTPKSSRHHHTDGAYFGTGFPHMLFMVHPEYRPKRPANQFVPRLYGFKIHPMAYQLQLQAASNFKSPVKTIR

[9] = target: T9, NuaK2 (Homo sapiens, UniProt Q9H093)
T9 construct: purchased Carna Biosciences
T9 sequence (Q9H093 1-628): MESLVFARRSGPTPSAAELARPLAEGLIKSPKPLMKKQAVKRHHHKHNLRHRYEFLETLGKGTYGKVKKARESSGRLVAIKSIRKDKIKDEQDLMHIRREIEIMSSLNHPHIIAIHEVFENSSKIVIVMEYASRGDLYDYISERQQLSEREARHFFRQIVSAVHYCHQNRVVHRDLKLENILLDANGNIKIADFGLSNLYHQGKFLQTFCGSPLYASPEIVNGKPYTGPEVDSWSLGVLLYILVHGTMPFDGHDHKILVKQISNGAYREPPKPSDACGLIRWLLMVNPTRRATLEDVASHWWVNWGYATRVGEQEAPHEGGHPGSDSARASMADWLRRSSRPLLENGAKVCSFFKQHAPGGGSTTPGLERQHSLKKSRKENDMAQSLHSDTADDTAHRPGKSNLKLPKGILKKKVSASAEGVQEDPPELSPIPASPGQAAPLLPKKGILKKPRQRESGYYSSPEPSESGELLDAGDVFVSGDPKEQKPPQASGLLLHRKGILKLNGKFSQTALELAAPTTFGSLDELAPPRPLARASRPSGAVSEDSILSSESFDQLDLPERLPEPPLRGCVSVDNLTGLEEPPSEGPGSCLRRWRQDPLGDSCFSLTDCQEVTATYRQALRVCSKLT

T1 sequence (O75582 whole entry): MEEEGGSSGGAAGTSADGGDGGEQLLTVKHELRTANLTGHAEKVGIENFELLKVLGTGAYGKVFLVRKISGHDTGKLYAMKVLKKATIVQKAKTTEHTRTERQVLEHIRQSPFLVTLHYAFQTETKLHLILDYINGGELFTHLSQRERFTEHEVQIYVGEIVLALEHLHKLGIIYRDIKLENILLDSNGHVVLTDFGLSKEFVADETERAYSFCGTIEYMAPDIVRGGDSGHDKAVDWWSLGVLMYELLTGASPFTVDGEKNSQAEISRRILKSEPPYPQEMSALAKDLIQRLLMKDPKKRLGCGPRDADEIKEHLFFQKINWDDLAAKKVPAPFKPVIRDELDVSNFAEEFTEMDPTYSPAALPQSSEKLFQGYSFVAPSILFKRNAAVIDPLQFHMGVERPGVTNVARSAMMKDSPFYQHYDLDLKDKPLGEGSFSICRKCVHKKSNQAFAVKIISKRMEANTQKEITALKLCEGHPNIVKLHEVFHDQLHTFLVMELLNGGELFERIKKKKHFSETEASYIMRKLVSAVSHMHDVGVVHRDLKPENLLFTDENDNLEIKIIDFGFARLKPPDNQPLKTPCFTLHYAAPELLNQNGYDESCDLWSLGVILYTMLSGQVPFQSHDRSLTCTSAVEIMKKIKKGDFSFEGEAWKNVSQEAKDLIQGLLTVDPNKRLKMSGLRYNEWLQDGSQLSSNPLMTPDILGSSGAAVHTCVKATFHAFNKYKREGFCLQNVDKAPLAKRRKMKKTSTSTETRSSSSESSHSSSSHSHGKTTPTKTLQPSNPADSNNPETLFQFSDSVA

Row | Structure (SMILES) | Percentage inhibition of kinase enzyme activity [1] | Percentage inhibition of kinase enzyme activity [2] | Percentage inhibition of kinase enzyme activity [3] | Percentage inhibition of kinase enzyme activity [4] | Percentage inhibition of kinase enzyme activity [5] | Percentage inhibition of kinase enzyme activity [6] | Percentage inhibition of kinase enzyme activity [7] | Percentage inhibition of kinase enzyme activity [8] | Percentage inhibition of kinase enzyme activity [9]
1 | C=CC(=O)N1CCC([C@@H]2CCNc3c(C(N)=O)c(-c4ccc(Oc5ccccc5)cc4)nn32)CC1 [zanubrutinib] | 0.57% | -0.67% | 82.03% | -6.85% | – | – | – | – | –
2 | CC#CC(=O)N1CCC[C@H]1c1nc(-c2ccc(C(=O)Nc3ccccn3)cc2)c2c(N)nccn12 [acalabrutinib] | -7.68% | -5.11% | 7.76% | 1.41% | -3.70% | 10.47% | -6.97% | 9.56% | 3.11%
3 | COc1ccc(F)cc1C(=O)NCc1ccc(-c2nn([C@@H](C)C(F)(F)F)c(N)c2C(N)=O)cc1 [pirtobrutinib] | 4.32% | 3.55% | -8.86% | 4.92% | 0.94% | 9.63% | 10.54% | 4.12% | -0.23%
4 | O=C(c1ccc(Oc2ccccc2)cc1Cl)c1c[nH]c2ncnc(N[C@@H]3CC[C@@H](CO)OC3)c12 [nemtabrutinib] | 11.30% | 1.16% | 101.94% | 90.70% | -2.11% | 33.46% | 56.28% | -3.55% | 24.70%
5 | C=CC(=O)N1CCC[C@@H](n2nc(-c3ccc(Oc4ccccc4)cc3)c3c(N)ncnc32)C1 [ibrutinib] | -1.18% | -21.37% | 18.52% | 90.82% | 1.89% | -1.93% | – | -7.37% | 6.37%
